Measurements from ChEMBL document CHEMBL3045068, “Effect of methomyl and oxamyl soil applications on early control of nematodes and insects” (Pest Manag Sci, 2011).
Converted amounts (≈) assume the structure as drawn.

Assays:
Meloidogyne incognita [1] = assay: Nematicidal activity against second juvenile stage of Meloidogyne incognita (root-knot nematode) assessed as mortality after 72 hr; type: functional
Meloidogyne incognita [2] = assay: Nematicidal activity against second juvenile stage of Meloidogyne incognita (root-knot nematode) infected pea plant assessed as emergence at 1.68 kg ai/ha applied to soil measured up to 14 days under green house conditions (reference value: 75 +/- 13%); type: functional
Phaseolus lunatus [3] = assay: Phytotoxicity in Phaseolus lunatus (lima bean) plant assessed as emergence at 1.12 kg ai/ha applied to soil measured up to 7 days under green house conditions (reference value: 70 +/- 16%); type: organism-based; conditions: in vivo, other, 168 h
Meloidogyne incognita [4] = assay: Nematicidal activity against second juvenile stage of Meloidogyne incognita (root-knot nematode) infected pea plant assessed as root dry weight at 1.12 kg ai/ha applied to soil measured up to 7 days post planting under green house conditions (reference value: 0.25 +/- 0.041 g); type: functional
Meloidogyne incognita [5] = assay: Nematicidal activity against second juvenile stage of Meloidogyne incognita (root-knot nematode) infected lima bean plant assessed as reduction in root gall index at 1.12 kg ai/ha applied to soil measured during planting under green house conditions (reference value: 7 +/- 0.27%); type: functional
Meloidogyne incognita [6] = assay: Nematicidal activity against second juvenile stage of Meloidogyne incognita (root-knot nematode) infected pea plant assessed as reduction in root gall index at 0.56 kg ai/ha applied to soil under green house conditions (reference value: 9.7 +/- 0.30%); type: functional
Phaseolus lunatus [7] = assay: Phytotoxicity in Phaseolus lunatus (lima bean) root assessed as root dry weight at 2.24 kg ai/ha applied to soil measured up to 7 days under green house conditions (reference value: 0.36 +/- 0.071 g); type: organism-based; conditions: in vivo, other, 168 h
Meloidogyne incognita [8] = assay: Nematicidal activity against second juvenile stage of Meloidogyne incognita (root-knot nematode) assessed as mortality after 48 hr; type: functional
Meloidogyne incognita [9] = assay: Nematicidal activity against second juvenile stage of Meloidogyne incognita (root-knot nematode) infected lima bean plant assessed as emergence at 1.12 kg ai/ha applied to soil measured during planting under green house conditions (reference value: 83 +/- 5%); type: functional
Meloidogyne incognita [10] = assay: Nematicidal activity against second juvenile stage of Meloidogyne incognita (root-knot nematode) infected pea plant assessed as root dry weight at 1.68 kg ai/ha applied to soil measured up to 14 days post planting under green house conditions (reference value: 0.25 +/- 0.041 g); type: functional
Meloidogyne incognita [11] = assay: Nematicidal activity against second juvenile stage of Meloidogyne incognita (root-knot nematode) infected pea plant assessed as plant fresh weight at 1.68 kg ai/ha applied to soil measured up to 7 days post planting under green house conditions (reference value: 4.3 +/- 0.56 g); type: functional
Meloidogyne incognita [12] = assay: Nematicidal activity against second juvenile stage of Meloidogyne incognita (root-knot nematode) infected pea plant assessed as plant fresh weight at 1.12 kg ai/ha applied to soil measured up to 7 days post planting under green house conditions (reference value: 4.3 +/- 0.56 g); type: functional
Meloidogyne incognita [13] = assay: Nematicidal activity against second juvenile stage of Meloidogyne incognita (root-knot nematode) infected lima bean plant assessed as emergence at 0.56 kg ai/ha applied to soil measured during planting under green house conditions (reference value: 83 +/- 5%); type: functional
Meloidogyne incognita [14] = assay: Nematicidal activity against second juvenile stage of Meloidogyne incognita (root-knot nematode) infected pea plant assessed as root fresh weight at 1.12 kg ai/ha applied to soil measured up to 7 days post planting under green house conditions (reference value: 1.83 +/- 0.3 g); type: functional
Meloidogyne incognita [15] = assay: Nematicidal activity against second juvenile stage of Meloidogyne incognita (root-knot nematode) infected pea plant assessed as root dry weight at 0.56 kg ai/ha applied to soil under green house conditions (reference value: 0.25 +/- 0.041 g); type: functional
Meloidogyne incognita [16] = assay: Nematicidal activity against second juvenile stage of Meloidogyne incognita (root-knot nematode) infected lima bean plant assessed as root dry weight at 1.12 kg ai/ha applied to soil measured during planting under green house conditions (reference value: 0.5 +/- 0.052 g); type: functional
Phaseolus lunatus [17] = assay: Phytotoxicity in Phaseolus lunatus (lima bean) plant assessed as emergence at 2.24 kg ai/ha applied to soil measured up to 7 days under green house conditions (reference value: 70 +/- 16%); type: organism-based; conditions: in vivo, other, 168 h
Meloidogyne incognita [18] = assay: Nematicidal activity against second juvenile stage of Meloidogyne incognita (root-knot nematode) infested soil containing cucumber seeds assessed as mortality applied post seed germination measured after 7 days under green house conditions; type: functional
Meloidogyne incognita [19] = assay: Nematicidal activity against second juvenile stage of Meloidogyne incognita (root-knot nematode) infected lima bean plant assessed as shoot dry weight at 0.56 kg ai/ha applied to soil measured during planting under green house conditions (reference value: 1.84 +/- 0.18 g); type: functional
Phaseolus lunatus [20] = assay: Phytotoxicity in Phaseolus lunatus (lima bean) plant assessed as plant dry weight at 1.12 kg ai/ha applied to soil measured up to 7 days under green house conditions (reference value: 1.20 +/- 0.21 g); type: organism-based; conditions: in vivo, other, 168 h
Meloidogyne incognita [21] = assay: Nematicidal activity against second juvenile stage of Meloidogyne incognita (root-knot nematode) infected pea plant assessed as emergence at 0.56 kg ai/ha applied to soil under green house conditions (reference value: 75 +/- 13%); type: functional
Meloidogyne incognita [22] = assay: Nematicidal activity against second juvenile stage of Meloidogyne incognita (root-knot nematode) infected pea plant assessed as root fresh weight at 1.68 kg ai/ha applied to soil measured up to 14 days post planting under green house conditions (reference value: 1.83 +/- 0.3 g); type: functional
Meloidogyne incognita [23] = assay: Nematicidal activity against second juvenile stage of Meloidogyne incognita (root-knot nematode) infected pea plant assessed as root fresh weight at 0.56 kg ai/ha applied to soil under green house conditions (reference value: 1.83 +/- 0.3 g); type: functional
Meloidogyne incognita [24] = assay: Nematicidal activity against second juvenile stage of Meloidogyne incognita (root-knot nematode) infected lima bean plant assessed as reduction in root gall index at 0.56 kg ai/ha applied to soil measured during planting under green house conditions (reference value: 7 +/- 0.27%); type: functional
Meloidogyne incognita [25] = assay: Nematicidal activity against second juvenile stage of Meloidogyne incognita (root-knot nematode) infected lima bean plant assessed as shoot dry weight at 1.12 kg ai/ha applied to soil measured during planting under green house conditions (reference value: 1.84 +/- 0.18 g); type: functional
Meloidogyne incognita [26] = assay: Nematicidal activity against second juvenile stage of Meloidogyne incognita (root-knot nematode) infected pea plant assessed as plant fresh weight at 0.56 kg ai/ha applied to soil under green house conditions (reference value: 4.3 +/- 0.56 g); type: functional
Meloidogyne incognita [27] = assay: Nematicidal activity against second juvenile stage of Meloidogyne incognita (root-knot nematode) infected pea plant assessed as reduction in root gall index at 1.68 kg ai/ha applied to soil measured up to 14 days post planting under green house conditions (reference value: 9.7 +/- 0.30%); type: functional
Meloidogyne incognita [28] = assay: Nematicidal activity against second juvenile stage of Meloidogyne incognita (root-knot nematode) infected pea plant assessed as reduction in root gall index at 1.12 kg ai/ha applied to soil measured up to 7 days post planting under green house conditions (reference value: 9.7 +/- 0.30%); type: functional
Phaseolus lunatus [29] = assay: Phytotoxicity in Phaseolus lunatus (lima bean) plant assessed as plant dry weight at 2.24 kg ai/ha applied to soil measured up to 7 days under green house conditions (reference value: 1.20 +/- 0.21 g); type: organism-based; conditions: in vivo, other, 168 h
Meloidogyne incognita [30] = assay: Nematicidal activity against second juvenile stage of Meloidogyne incognita (root-knot nematode) infected lima bean plant assessed as root dry weight at 0.56 kg ai/ha applied to soil measured during planting under green house conditions (reference value: 0.5 +/- 0.052 g); type: functional
Phaseolus lunatus [31] = assay: Phytotoxicity in Phaseolus lunatus (lima bean) root assessed as root dry weight at 1.12 kg ai/ha applied to soil measured up to 7 days under green house conditions (reference value: 0.36 +/- 0.071 g); type: organism-based; conditions: in vivo, other, 168 h
Meloidogyne incognita [32] = assay: Nematicidal activity against second juvenile stage of Meloidogyne incognita (root-knot nematode) infected pea plant assessed as emergence at 1.12 kg ai/ha applied to soil measured up to 7 days under green house conditions (reference value: 75 +/- 13%); type: functional

SMILES: CNC(=O)O/N=C(\SC)C(=O)N(C)C [OXAMYL]
- LC90 (Meloidogyne incognita [1]): 2.5 µg/mL (≈ 11.4 µM)
- LC50 (Meloidogyne incognita [1]; Meloidogyne incognita, Juvenile stage, 72 h): 1.7 µg/mL (≈ 7.75 µM)
- Activity (Meloidogyne incognita [2]): 75%
- Activity (Phaseolus lunatus [3]): 80%
- Activity (Meloidogyne incognita [4]): 0.31 g
- Root_galling_index (Meloidogyne incognita [5]): 0%
- Root_galling_index (Meloidogyne incognita [6]): 0%
- Activity (Phaseolus lunatus [7]): 0.6 g
- LC90 (Meloidogyne incognita [8]): 11.5 µg/mL (≈ 52.4 µM)
- LC50 (Meloidogyne incognita [8]; Meloidogyne incognita, Juvenile stage, 48 h): 4 µg/mL (≈ 18.2 µM)
- Activity (Meloidogyne incognita [9]): 100%
- Activity (Meloidogyne incognita [10]): 0.29 g
- Activity (Meloidogyne incognita [11]): 7.1 g
- Activity (Meloidogyne incognita [12]): 6 g
- Activity (Meloidogyne incognita [13]): 83%
- Activity (Meloidogyne incognita [14]): 1.61 g
- Activity (Meloidogyne incognita [15]): 0.17 g
- Activity (Meloidogyne incognita [16]): 0.41 g
- Activity (Phaseolus lunatus [17]): 70%
- LC90 (Meloidogyne incognita [18]): 12 µg/mL (≈ 54.7 µM)
- LC50 (Meloidogyne incognita [18]; Meloidogyne incognita, Juvenile stage, 168 h): 2.8 µg/mL (≈ 12.8 µM)
- Activity (Meloidogyne incognita [19]): 1.09 g
- Activity (Phaseolus lunatus [20]): 1.48 g
- Activity (Meloidogyne incognita [21]): 63%
- Activity (Meloidogyne incognita [22]): 1.76 g
- Activity (Meloidogyne incognita [23]): 1.36 g
- Root_galling_index (Meloidogyne incognita [24]): 0%
- Activity (Meloidogyne incognita [25]): 1.49 g
- Activity (Meloidogyne incognita [26]): 4.4 g
- Root_galling_index (Meloidogyne incognita [27]): 0%
- Root_galling_index (Meloidogyne incognita [28]): 0%
- Activity (Phaseolus lunatus [29]): 1.79 g
- Activity (Meloidogyne incognita [30]): 0.31 g
- Activity (Phaseolus lunatus [31]): 0.35 g
- Activity (Meloidogyne incognita [32]): 63%
